Patent publication US8257928B2, “Methods for predicting and treating tumors resistant to drug, immunotherapy and radiation” (The Regents of the University of California, priority 2008, dated 2012)
Entries after “also recorded” stand apart in the source; their conditions may differ.

Columns and labels:
Format in all cases: cell-based, human
HMT3522 T4-2 cells [1] = assay: Percent cell death in 2D monolayer, 3D rBM and reverted cultures (active caspase 3); details: for death sensitivity of cells cultured in 3D rBM: 3D rBM disorganized aggregates vs 2D monolayer; for death sensitivity of cells cultured in 3D rBM / death sensitivity of structurally reverted spheroids: TRAIL 1.0 μg/mL, Paclitaxel 20 μM; for death sensitivity of structurally reverted spheroids: reverted with tyrphostin AG 1478 in 3D rBM
From the text: (§1) The oligonucleotides specifying the small hairpin RNAs (shRNAs) were subcloned from pSilencer-H1 into pLZRS-MFG-CMV-Neo-U6, a recombinant self-inactivating retroviral vector constructed from the backbone of an MFG provirus (Proc. Natl. Acad. Sci. USA 85:6460-6464 (1988); Proc. Natl. Acad. Sci. USA 90:3539-3543 (1993)), which directs the expression of shRNA under the control of the U6 promoter. Amphotropic retrovirus was produced in Phoenix ampho cells (provided by Professor G. Nolan, Stanford Medical Center) with packaging vectors pCgp and pVSVG to boost viral titer. S1 cells or T4-2 cells, maintained in monolayer cultures, were then spin infected with retrovirus carrying the various RNAi constructs and infected cell populations were selected using 300 μg/ml G418 (Invitrogen).
Non-neoplastic HMT3522 S1 breast epithelial cells or neoplastic HMT3522 T4-2 cells were embedded (8.5×10^5/ml) within reconstituted basement membrane (rBM) gel (Matrigcl, BD Biosciences) in chamber slides (Lab-Tek chamber slides, Nunc) according to the procedures described in U.S. Pat. No. 6,123,941 and Nat. Method. 4:359-365 (2007). […] Phenotypic reversion of HMT3522 T4-2 cells in three dimensional rBM cultures was performed using an epidermal growth factor receptor (EGFR) specific tyrosine kinase inhibitor tyrphostin AG 1478 (100 nM) (Calbiochem), as previously described (Proc. Natl. Acad. Sci. USA 95:14821-14826 (1998))
Apoptotic cell death of the breast epithelial cells cultured in three dimensional rBM was initiated by treatment with recombinant, purified human tumor necrosis factor-related apoptosis-inducing ligand (TRAIL) peptides (BIOMOL) or Paclitaxel (Sigma-Aldrich) as described (Cancer Cell 2:205-216 (2002)). DNA damage-induced cell death was initiated by ionizing radiation (IR) using a Mark I Cesium 137 irradiator (JL Shepherd & Associates).
(§2) Percent cell death induced by TRAIL or Paclitaxel was quantified using detection of active caspase 3 (Cell Signaling) by indirect immunofluorescence as described (J. Cell Biol. 163:1397-1407 (2003)). Percent cell death induced by IR was quantified using Live/Dead Viability/Cytotoxicity Assay (Molecular Probes). For both methods, cells were counterstained with 4′,6-diamidino-2-phenylindole (DAPI) to label cell nuclei present at different focal planes in the 3D architectures. Percent death was calculated as cells positive for ethidium bromide or active caspase 3 expressed as a percentage of the total number of cells scored by the nuclear staining.
Percent cell death induced by TRAIL was quantified using detection of active caspasc 3 as described in Example 4.

N-CoR2 = assay: Immunoblot of N-CoR2 protein abundance in 2D, 3D and reverted cultures; details: T4-2 aggregates reverted into organized spheroids by EGFR inhibition, vs disorganized 3D aggregates
Procedure: For immunoblot analysis, cell colonies (S1 acini or T4-2 cellular aggregates) in 3D rBM were isolated using ice-cold PBS/EDTA. Total cell lysates from monolayered cells or isolated colonies were prepared in Laemmli lysing buffer containing protease inhibitors and immunoblot analysis was performed as described (Exp. Cell Res. 298:122-132 (2004)).

HMT3522 T4-2 cells [2] = assay: Phenotypic reversion in three dimensional rBM cultures; details: tyrphostin AG 1478 100 nM
From the text: Non-neoplastic HMT3522 S1 breast epithelial cells or neoplastic HMT3522 T4-2 cells were embedded (8.5×10^5/ml) within reconstituted basement membrane (rBM) gel (Matrigcl, BD Biosciences) in chamber slides (Lab-Tek chamber slides, Nunc) according to the procedures described in U.S. Pat. No. 6,123,941 and Nat. Method. 4:359-365 (2007). The three dimensional cultures were maintained for 12 days before induction of cell death. Phenotypic reversion of HMT3522 T4-2 cells in three dimensional rBM cultures was performed using an epidermal growth factor receptor (EGFR) specific tyrosine kinase inhibitor tyrphostin AG 1478 (100 nM) (Calbiochem), as previously described (Proc. Natl. Acad. Sci. USA 95:14821-14826 (1998))

HMT3522 S1 cells [3] = assay: Cell growth rates on culture plastics and 3D acinar morphogenesis in rBM; details: stable RNAi vs control shRNA
Procedure: For the comparison of cell growth rates, cells were seeded on culture plastics and the cell number was determined at indicated time points. Population doublings were calculated as In (cell number at day n/cell number at day 0)/ln 2. Data were shown as mean±SEM of triplicate experiments.
To illustrate the basal surfaces and the intercellular junctions of the polarized acinar structures, the cultures were directly fixed with 2% paraformaldehyde and then incubated with primary antibodies toward β4-integrin and β-catenin, followed by FITC-(green) or Texas red-(red) conjugated secondary antibodies, respectively. Phase contrast images or immunofluorescence images were taken using a scanning confocal laser (model 2000-MP, Bio-Rad Laboratories) attached to a fluorescence microscope (model Eclipse TE-300, Nikon).

HMT3522 S1 cells [4] = assay: Percent cell death of 3D rBM acini (active caspase 3; Live/Dead assay for IR); details: stable N-CoR2 downregulation vs control cells, range of drug concentrations or IR doses
From the text: as §1, with “(Invitrogen). […]” for “(Invitrogen).”
as §2, with “For both methods, cells were counterstained with 4′,6-diamidino-2-phenylindole (DAPI) to label cell nuclei present at different focal planes in the 3D architectures.” left out

With CC(=O)O[C@H]1C(=O)[C@@]2(C)[C@H]([C@H](OC(=O)c3ccccc3)[C@]3(O)C[C@H](OC(=O)[C@H](O)[C@@H](NC(=O)c4ccccc4)c4ccccc4)C(C)=C1C3(C)C)[C@]1(OC(C)=O)CO[C@@H]1C[C@@H]2O [Paclitaxel, reference compound] the “death sensitivity of cells cultured in 3D rBM” value (HMT3522 T4-2 cells [1]) was “decreased sensitivity” and the “death sensitivity of structurally reverted spheroids” value (HMT3522 T4-2 cells [1]) was “further decrease in the sensitivity”.

COc1cc2ncnc(Nc3cccc(Cl)c3)c2cc1OC [tyrphostin AG 1478] was tested, and the “protein abundance of N-CoR2” value (N-CoR2) was “further increase in the protein abundance of N-CoR2” and the “phenotypic reversion of cellular aggregates in 3D rBM” value (HMT3522 T4-2 cells [2]) was “phenotypic reversion of the cellular aggregates into organized spheroid-like structures”.

“HDAC3 shRNA: retrovirally expressed small hairpin RNA, siRNA sequence 5′-AAGATGCTGAACCATGCACCT-3′ (SEQ ID NO:2) for HDAC3” was tested, and the “sensitivity to the TRAIL treatment of N-CoR2-overexpressed cells” value (HMT3522 T4-2 cells [1]; HDAC3 simultaneously downregulated by retrovirus-mediated RNAi) was “restored to an extent comparable to that of vehicle-treated cells”.

“N-CoR2 (K449A): mutant N-CoR2 with lysine 449 mutated to alanine; binds HDAC3 but does not activate it” was tested, and the “sensitivity to death induction by TRAIL of cells transduced with the mutant” value (HMT3522 T4-2 cells [1]; T4-2 cells in rBM gel 5 days, vs vector control cells) was “hypersensitive to death induction to an extent even greater than that of the vector control cells”.

For “N-CoR2 shRNA: retrovirally expressed small hairpin RNA, siRNA sequence 5′-AAGGGTATCATCACCGCTGTG-3′ (SEQ ID NO:1) for N-CoR2”, the “increased resistance of reverted spheroidal structures to death stimuli (TRAIL, Paclitaxel)” value (HMT3522 T4-2 cells [1]; stable N-CoR2 downregulation, TRAIL 1.0 μg/mL or Paclitaxel 20 μM) was “completely reversed”, the “growth on culture plastics, integrity and polarization of acini in 3D rBM” value (HMT3522 S1 cells [3]) was “does not significantly alter” and the “sensitivity of S1 acini to death stimuli (TRAIL, Paclitaxel, IR)” value (HMT3522 S1 cells [4]) was “much more sensitive”.

B1: TRAIL: recombinant, purified human tumor necrosis factor-related apoptosis-inducing ligand (TRAIL) peptides (BIOMOL) (protein, UniProt P50591 1-281, looked up)
Tumor necrosis factor ligand …: MAMMEVQGGPSLGQTCVLIVIFTVLLQSLCVAVTYVYFTNELKQMQDKYSKSGIACFLKEDDSYWDPNDEESMNSPCWQVKWQLRQLVRKMILRTSEETISTVQEKQQNISPLVRERGPQRVAAHITGTRGRSNTLSSPNSKNEKALGRKINSWESSRSGHSFLSNLHLRNGELVIHEKGFYYIYSQTYFRFQEEIKENTKNDKQMVQYIYKYTSYPDPILLMKSARNSCWSKDAEYGLYSIYQGGIFELKENDRIFVSVTNEHLIDMDHEASFFGAFLVG
With B1 the “death sensitivity of cells cultured in 3D rBM” value (HMT3522 T4-2 cells [1]) was “decreased sensitivity”, the “death sensitivity of structurally reverted spheroids” value (HMT3522 T4-2 cells [1]) was “further decrease in the sensitivity” and the “death sensitivity of cells with stable overexpression of wild-type N-CoR2” value (HMT3522 T4-2 cells [1]; vs vector control cells, 3D rBM) was “markedly resistant; also recorded: less sensitive”.
